Data: publication PMC2832585 (Bioorganic & medicinal chemistry, 2009)
Read-outs that look alike come from different tables or passages of the source.

Experiments:
human β2-AR = human β2-AR (Homo sapiens, UniProt P07550); experiment: β2-AR binding, [3H]CGP-12177 displacement on HEK cell membranes; conditions: relative to (R,R)-1 or (R,S)-1
[1] = system: single ventricular myocytes; experiment: Cardiomyocyte contractility model; assay type: cell-based, rat
β1-AR = β1-AR (Rattus norvegicus, UniProt P18090); experiment: β1-AR binding, [3H]CGP-12177 displacement on rat cortical membranes
[2] = system: single ventricular myocytes; conditions: read-out: EC50(cardio); previous data; ref [10]; cited from earlier work

Chain of human β2-AR (P07550 whole entry): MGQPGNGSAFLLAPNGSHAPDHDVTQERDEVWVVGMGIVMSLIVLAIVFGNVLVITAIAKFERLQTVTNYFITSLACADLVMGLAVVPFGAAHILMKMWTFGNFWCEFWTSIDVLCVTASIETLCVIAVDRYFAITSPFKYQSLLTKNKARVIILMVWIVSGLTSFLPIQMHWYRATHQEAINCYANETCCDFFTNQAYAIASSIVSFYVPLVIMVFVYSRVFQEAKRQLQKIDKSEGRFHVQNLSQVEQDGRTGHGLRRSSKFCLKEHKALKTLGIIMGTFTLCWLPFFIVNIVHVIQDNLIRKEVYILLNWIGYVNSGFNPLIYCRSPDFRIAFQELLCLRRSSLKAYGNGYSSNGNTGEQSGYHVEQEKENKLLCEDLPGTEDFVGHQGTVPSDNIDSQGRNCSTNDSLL
Chain of β1-AR (P18090 whole entry): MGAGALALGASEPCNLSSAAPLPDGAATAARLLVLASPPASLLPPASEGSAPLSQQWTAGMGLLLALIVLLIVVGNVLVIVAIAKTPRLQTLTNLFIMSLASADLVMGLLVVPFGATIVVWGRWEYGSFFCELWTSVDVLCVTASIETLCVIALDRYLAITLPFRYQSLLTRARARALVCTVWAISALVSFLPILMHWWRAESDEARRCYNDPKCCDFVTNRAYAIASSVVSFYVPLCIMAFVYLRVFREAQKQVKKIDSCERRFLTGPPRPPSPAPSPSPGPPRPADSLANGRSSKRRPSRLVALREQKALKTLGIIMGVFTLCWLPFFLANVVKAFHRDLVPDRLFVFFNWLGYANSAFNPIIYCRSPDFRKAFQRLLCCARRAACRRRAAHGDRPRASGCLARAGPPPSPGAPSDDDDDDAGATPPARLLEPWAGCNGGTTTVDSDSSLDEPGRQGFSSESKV

## CC[C@@H](Cc1ccc(O)cc1)NC[C@H](O)c1cc(O)cc(O)c1 (racemic) [(R,S)-52]
Human β2-AR
  Ki(β2-AR) fold greater than corresponding isomer of 1: 1.5 fold

## C[C@H](Cc1ccc(O)cc1)NC[C@H](O)c1cc(O)cc(O)c1 [(R,R)-1, (R,R)-fenoterol]
[1]; read-out: EC50cardio, cardiomyocyte contractility
  EC50: 73 ± 18 nM

## CC[C@H](Cc1ccc(O)cc1)NC[C@H](O)c1cc(O)cc(O)c1 [(R,R)-52, (R,R-(−)-5-(1-Hydroxy-2-(1-hydroxyphenyl)butan-2-ylamino)ethyl) benzene-1,3-diol]
β1-AR
  Ki(β1-AR) of (R,R)-isomer fold larger than (R,S)-isomer: 4 fold
β1-AR; relative to (R,R)-1 or (R,S)-1
  Ki(β1-AR) fold higher than corresponding isomer of 1: 28 fold
Human β2-AR
  Ki(β2-AR) fold greater than corresponding isomer of 1: ~ 4 fold
[1]; cardiomyocyte contractility model, data not shown
  antagonism of the activity of zinterol: did not antagonize
[1]; initial data, data not shown, indicates activation of both GS and Gi proteins
  sensitivity of cardiomyocyte contractility activity to pertussis toxin: sensitive to pertussis toxin

## C[C@H](Cc1ccc(O)cc1)NC[C@@H](O)c1cc(O)cc(O)c1 [(S,R)-1]
[2]
  EC50: 2340 nM

## COc1ccc(C[C@@H](C)NC[C@@H](O)c2cc(O)cc(O)c2)cc1 [(S,R)-2]
[2]
  EC50: 3160 nM
